Measurements taken from patent publication US11730741B2, “6-chromanol derivatives for use as a medicament” (Sulfateq B.V., priority 2017, dated 2023).
Marks after values point to notes of the source that are not given here.

Legend:
[1] = screening of a range of SUL compounds including trolox; cited from earlier work
[2] = tested on: experimental in vivo models of COPD; details: cited from earlier work
[3] = tested on: isolated porcine intrarenal arteries; test: Myography: phenylephrine-induced constriction of isolated porcine intrarenal arteries; details: 30 min pre-incubation
Description: Porcine kidneys were obtained from a local slaughterhouse (Kroon Vlees, Gotenburgweg 30, 9723 ™ Groningen, The Netherlands) and transported on ice in normal physiological Krebs buffer containing 120 mM NaCl, 6 mM KCl, 2.5 mM CaCl2×2H2O, 1.2 mM MgCl2×6H2O, 1.2 mM NaH2PO4×H2O, 25 mM NaHCO3 and 11.4 mM D-(+)-Glucose monohydrate (all ingredients were purchased from Merck) in ultrapure water.
The renal artery tree was dissected from the kidney, cleaned of surrounding connective tissue and cut into equally-sized ring segments (2 mm in length). In some rings, endothelium denudation was performed by gentle rubbing of the intimal surface with a paper clip. Rings were mounted in organ baths as described previously (Buikema et al., 2000).
Arterial rings were washed thoroughly by replacing Krebs buffer and allowed to equilibrate for a period of 60 min under 1.4 g of resting tension before they were assessed for viability by inducing 2 subsequent constrictions with KCl (60 mM). […] After washout and stabilization, rings were treated for 30 minutes by incubation with vehicle (0.1% DMSO), SUL-121, SUL-150 or SUL-151, followed by subsequent incubation with cumulative doses of phenylephrine.
Dose-dependent constriction responses to phenylephrine (10^−8M-10^−4M) were recorded in isolated porcine intrarenal arteries. Buffer was warmed to 37° C. and aerated with 95% O2 and 5% CO2 before use.
Vascular constriction responses are expressed as percentage of final response to KCl. Data are expressed as mean±SEM. *p<0.05.
To explore the effects of 2R and 2S-(6-hydroxy-2,5,7,8-tetramethylchroman-2-yl)(piperazin-1-yl)methanone (resp. SUL-150 and SUL-151) on constriction of isolated porcine intrarenal arteries, cumulative dose response curves to the α1 adrenoceptor agonist phenylephrine (PE) were constructed in the presence and absence of SUL-150 resp SUL-151 (FIG. 1).

[4] = molecular target: T1, human α1 adrenoceptor subtype D (Homo sapiens, UniProt P25100); test: Intracellular calcium assay (FLIPR Calcium 6), phenylephrine-stimulated CHO cells overexpressing α1D adrenoceptor; assay type: cell-based; details: for logEC50 of phenylephrine-induced calcium influx, α1D: 30 min at 37° C.
T1 construct: expressed in transfected cells; host or cells: CHO-K1
T1 sequence (P25100 1-572): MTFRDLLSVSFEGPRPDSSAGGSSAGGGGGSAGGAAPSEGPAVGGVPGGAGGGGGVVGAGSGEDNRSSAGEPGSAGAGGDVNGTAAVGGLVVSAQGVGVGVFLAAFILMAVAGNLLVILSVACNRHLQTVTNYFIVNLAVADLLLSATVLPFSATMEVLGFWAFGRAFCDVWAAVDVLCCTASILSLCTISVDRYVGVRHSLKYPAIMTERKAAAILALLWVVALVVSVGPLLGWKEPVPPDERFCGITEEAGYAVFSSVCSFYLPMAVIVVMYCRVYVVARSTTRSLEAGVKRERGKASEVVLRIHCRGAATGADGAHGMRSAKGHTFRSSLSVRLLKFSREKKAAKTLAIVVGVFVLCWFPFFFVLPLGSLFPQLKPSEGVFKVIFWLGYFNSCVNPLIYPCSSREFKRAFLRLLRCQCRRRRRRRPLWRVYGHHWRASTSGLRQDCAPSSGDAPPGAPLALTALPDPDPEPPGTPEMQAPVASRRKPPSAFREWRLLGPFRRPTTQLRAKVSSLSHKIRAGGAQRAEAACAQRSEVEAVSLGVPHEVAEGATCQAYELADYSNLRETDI
Description: (§1) CHO—K1 cells were stably transfected with a plasmid containing human α1-AR subtypes A, B and D in separate cell lines in DMEM-F12 medium with 10% FBS, 1% penicillin-streptomycin and 200 μg/mL Geneticin (G418, Invitrogen, Carlsbad, Calif.).
(§2) On the next day, CHO cells were treated with either vehicle (0.1% DMSO) or SUL-150 resp. SUL-151 for 30 min at 37° C. and stimulated with a 3-fold dilution series of PE ([…]). [Ca^2+]i was measured using the fluorescent FLIPR Calcium 6 assay kit (Molecular Devices) in immortalized CHO cells stably expressing the α1 adrenoceptor.
(§3) Initially, calcium responses induced by non-cumulative concentration series of phenylephrine were investigated using fluorescent measurements in α1A adrenoceptor-overexpressing CHO cells treated with SUL-150 and SUL-151 (FIG. 4). Fluorescent measurement data was processed and analyzed in SoftMax Pro 7 and expressed as % of baseline AUC with a 3-fold multiplier using an average of first 10 measurement points as baseline.
(§4) The “Vehicle” used in all experiments is 0.1% DMSO solution.

[5] = molecular target: T2, human α1 adrenoceptor subtype B (Homo sapiens, UniProt P35368); test: Intracellular calcium assay (FLIPR Calcium 6), phenylephrine-stimulated CHO cells overexpressing α1B adrenoceptor; assay type: cell-based; details: for logEC50 of phenylephrine-induced calcium influx, α1B: 30 min at 37° C.
T2 construct: expressed in transfected cells; host or cells: CHO-K1
T2 sequence (P35368 1-520): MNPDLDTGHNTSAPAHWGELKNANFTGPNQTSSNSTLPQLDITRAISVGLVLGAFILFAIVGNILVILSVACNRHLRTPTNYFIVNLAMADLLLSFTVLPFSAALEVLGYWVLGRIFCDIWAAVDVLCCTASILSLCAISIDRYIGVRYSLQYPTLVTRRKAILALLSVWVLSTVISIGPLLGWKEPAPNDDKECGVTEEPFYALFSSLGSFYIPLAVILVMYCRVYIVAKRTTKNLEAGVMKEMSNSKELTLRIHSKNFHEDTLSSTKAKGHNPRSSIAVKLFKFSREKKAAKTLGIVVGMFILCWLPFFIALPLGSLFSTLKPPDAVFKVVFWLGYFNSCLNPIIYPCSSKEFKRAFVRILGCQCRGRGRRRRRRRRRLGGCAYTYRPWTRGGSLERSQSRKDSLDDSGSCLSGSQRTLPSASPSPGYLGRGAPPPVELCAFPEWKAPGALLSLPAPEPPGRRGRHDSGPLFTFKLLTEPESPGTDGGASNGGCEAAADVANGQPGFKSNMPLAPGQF
Description: as §1, §2, §3, §4

[6] = molecular target: T3, human α1 adrenoceptor subtype A (Homo sapiens, UniProt P35348); test: Intracellular calcium assay (FLIPR Calcium 6), phenylephrine-stimulated CHO cells overexpressing α1A adrenoceptor; assay type: cell-based; details: for logEC50 of phenylephrine-induced calcium influx, α1A: 30 min at 37° C.
T3 construct: expressed in transfected cells; host or cells: CHO-K1
T3 sequence (P35348 1-466): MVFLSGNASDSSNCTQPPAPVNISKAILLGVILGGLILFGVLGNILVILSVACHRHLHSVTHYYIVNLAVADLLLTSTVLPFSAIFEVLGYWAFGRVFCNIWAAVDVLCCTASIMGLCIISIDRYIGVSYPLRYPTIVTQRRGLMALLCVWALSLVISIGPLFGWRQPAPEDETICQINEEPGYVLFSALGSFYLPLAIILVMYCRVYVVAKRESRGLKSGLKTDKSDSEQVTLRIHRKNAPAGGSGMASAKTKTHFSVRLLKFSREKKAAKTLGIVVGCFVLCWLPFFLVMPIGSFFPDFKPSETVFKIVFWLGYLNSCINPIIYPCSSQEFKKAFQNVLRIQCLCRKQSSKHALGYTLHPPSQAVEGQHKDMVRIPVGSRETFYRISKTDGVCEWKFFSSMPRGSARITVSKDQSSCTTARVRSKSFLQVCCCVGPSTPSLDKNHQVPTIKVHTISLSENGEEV
Description: as §1, §2, §3, §4

α1A adrenoceptor = molecular target: T4, α1A adrenoceptor (Homo sapiens, UniProt P35348); test: Radioligand displacement binding assay with [7-Methoxy-3H]-prazosin in α1A adrenoceptor transgenic CHO cells
T4 construct: expressed in transfected cells; host or cells: CHO
T4 sequence (P35348 1-466): T3 sequence (P35348 1-466)
Excerpt: We therefore explored whether SUL-150 could directly interact with the α1 adrenoceptor as a receptor antagonist.

[7] = in the presence of 10 μM compound
[8] = in the presence of 30 μM compound
[9] = in the presence of 100 μM compound

effect on PE-induced calcium transients, α1D subtype, in words [4]	effect on PE-induced calcium transients, α1B subtype, in words [5]	effect on PE-induced calcium transients, α1A subtype, in words [6]	logEC50 of phenylephrine-induced calcium influx, α1A ([6]; 10 μM compound)	logEC50 of phenylephrine-induced calcium influx, α1A ([6]; 30 μM compound)	logEC50 of phenylephrine-induced calcium influx, α1A ([6]; 100 μM compound)	SMILES	logEC50 of phenylephrine-induced constriction responses [3, 7]	logEC50 of phenylephrine-induced constriction responses [3, 8]	logEC50 of phenylephrine-induced constriction responses [3, 9]	also measured
–	–	–	–	–	–	Cc1c(C)c2c(c(C)c1O)CCC(C)(C(=O)N1CCNCC1)O2 (racemic) [SUL-121, (6-hydroxy-2,5,7,8-tetramethylchroman-2-yl)(piperazin-1-yl)methanone]	–	–	–	anti-oxidant effect [1]: very potent anti-oxidant effect; LPS-induced airway neutrophilia [2]: dose-dependently reduced; LPS-induced attenuation of H2S production [2]: dose-dependently reduced; neutrophilia-related as well as unrelated ROS production [2]: dose-dependently reduced; nuclear translocation of the antioxidative response regulator Nrf2 [2]: inhibited
shifted dose response curves rightwards	shifted dose response curves rightwards	shifted dose response curves rightwards	−7.62 ± 0.03	−7.28 ± 0.03	−6.88 ± 0.03	Cc1c(C)c2c(c(C)c1O)CCC(C)(C(=O)N1CCNCC1)O2 (stereo not shown) [SUL-150, (6-hydroxy-2,5,7,8-tetramethylchroman-2-yl)(piperazin-1-yl)methanone]	−5.11 ± 0.09*	−5.06 ± 0.06*	−4.44 ± 0.09*	logEC50 of phenylephrine-induced calcium influx, α1D ([4]; 10 μM compound): −7.37 ± 0.10; logEC50 of phenylephrine-induced calcium influx, α1D ([4]; 30 μM compound): −7.04 ± 0.06; logEC50 of phenylephrine-induced calcium influx, α1D ([4]; 100 μM compound): −6.80 ± 0.10; logEC50 of phenylephrine-induced calcium influx, α1B ([5]; 10 μM compound): −7.51 ± 0.08; logEC50 of phenylephrine-induced calcium influx, α1B ([5]; 30 μM compound): −7.24 ± 0.07; logEC50 of phenylephrine-induced calcium influx, α1B ([5]; 100 μM compound): −6.72 ± 0.08; potency in displacing the radioligand, compared to SUL-151, in words (α1A adrenoceptor): significantly more potent
did not affect calcium transients	did not affect calcium transients	did not affect calcium transients	−8.09 ± 0.10	−8.09 ± 0.11	−7.98 ± 0.10	Cc1c(C)c2c(c(C)c1O)CC[C@@](C)(C(=O)N1CCNCC1)O2 [SUL-151, (2S)(6-hydroxy-2,5,7,8-tetramethylchroman-2-yl)(piperazin-1-yl)methanone]	−5.82 ± 0.05	−5.89 ± 0.04	−5.77 ± 0.04	concentrations at which [7-Methoxy-3H]-prazosin was displaced (α1A adrenoceptor): higher than 10 μM
